The numbers were not newly measured in patent US11642308B2, “Ready to use liquid formulation” (priority 2020, dated 2023), which cites them from elsewhere.

The structures appear in SMILES notation.

The conditions of this data set: ≈25° C. and ≈1 bar.

As for `O=O` [oxygen], the solubility in water entry was “about 40 mg/L”.
